“And” between values parts separate entries of the source, which are not always exact repeats. Identical values can stand only once. Like-named read-outs stand apart in the source and are kept apart here.
What was measured:
[1] = tested on: MCF-7 breast carcinoma cell line; assay: Cell growth proliferation inhibition, MTT assay, MCF7; assay type: cell-based, human; details: MCF7 cells, 72 hours exposure
Experimental: (§1) When the cell are confluent, they are trypsinised and seeded in 48-well plates as monolayers for 24 h. […] The media is removed from the cell plates are the drug solutions applied in triplicate. A set of control cells, with media containing 1.0% DMSO, was left on each plate. The cells were exposed to the drugs for 72 hours. For […], (8) and (9), the Ru compounds are weighed, and dissolved directly in medium to 1600 μM, then serially diluted to make up 800 μ[…] solutions. Cell viability was determined using the standard MTT assay protocol, which allows the quantification of the mitochondrial activity in metabolically active cells. MTT (final concentration 0.2 mg/ml) was added to the cells for 2 h, then the culture medium was aspirated and the violet formazan precipitate dissolved in 0.1 N HCl in 2-propanol. The optical density, which is directly proportional to number of surviving cells, was quantified at 540 nm using a multiwell plate reader and the fraction of surviving cells was calculated from the absorbance of untreated control cells. Using the above protocol, the compounds were tested against human T47D and MCF-7 breast carcinoma, A549 lung carcinoma and HT-29 colon carcinoma cell lines (see FIG. 7).

[2] = tested on: HT-29 colon carcinoma cell line; assay: Cell growth proliferation inhibition, MTT assay, HT29; assay type: cell-based, human; details: 72 hours exposure
Experimental: as §1

[3] = tested on: A549 lung carcinoma cell line; assay: Cell growth proliferation inhibition, MTT assay, A549; assay type: cell-based, human; details: A549 cells, 72 hours exposure
Experimental: as §1

[4] = tested on: T47D breast carcinoma cell line; assay: Cell growth proliferation inhibition, MTT assay, T47D; assay type: cell-based, human; details: T47D cells, 72 hours exposure
Experimental: as §1

TLX5 lymphona cells = assay: Survival time in an in vivo TLX5 lymphoma model; set-up: species or system CBA brown-grey inbred mice; details: for % increase vs Controls (mean survival time) / Mean survival time (days ± SD): TLX5 cells i.p. day 0 in CBA mice, treatment i.p. at day 3, Compound 3 at 200 mg/kg, Cisplatin 8 mg/kg; for Activity in vivo (in words): TLX5 lymphoma in mice, i.p., compound 3 given as suspension in carboxymethylcellulose
Experimental: Tumour cells (TLX5, see above in Example 8) were derived from mouse tumours and stabilised for in vivo propagation. For the animal study, TLX5 lymphona cells were injected in the peritoneal cavity of CBA brown-grey inbred mice (Harlan-Nossan, San Giovanni al Natisone, Udine, Italy) at day 0. Test compounds were applied at day 3 at various doses, also by the intraperitoneal route, with each drug (test compound or reference drug) diluted in appropriate physiological solution and injected in a volume of 0.1 ml/10 g body weight.

[5] = tested on: HT-29 Human colorectal carcinoma; assay: IC50 on tumor cell lines, MTT test, HT-29; assay type: cell-based; details: HT-29, 3 days treatment, two separate experiments
Experimental: (§2) IC50 values are determined as follows: Tumour cells are incubated in the appropriate complete medium at 37° C. and under controlled atmosphere (5% CO2). Test compounds are tested at doses in the range of 100 nM and 100 μM. Cytotoxicity is determined by the MTT test, by measuring cell viability as the cell metabolic capacity to transform the tetrazolium salt of MTT in the blue formazan, by mitochondrial dehydrogenases; the blue colour is read at 570 nm with a spectrophotometer (Alley M C, Scudiero D A, Monks A, Hursey A L, Czerwinski M J, Fine D L, Abbott B J, Mayo J G, Shoemaker R H, Boyd M R. Feasibility of drug screening with panels of human tumor cell lines using a microculture tetrazolium assay. Cancer Res 48: 598-601, 1988. Mosmann T. Rapid colorimetric assay for cellular growth and survival: application to proliferation and cytotoxicity assays. […] Briefly, on day 0, in 96-well plates, 2-4000 cells/well/100 μl complete medium are plated. On day 1, test compounds are added at the test concentrations of 10^−7 M; 3*10^−7 M; 10^−6 M; 3*10^−6 M; 10^−5 M; 3*10^−5M; 10^−4 M. Each concentration is studied in triplicate. Cell viability, as determined by the MTT test is done on Day 4, after 3 days treatment. Each well is added with 10 μl/100 μl MTT (prepared previously by dissolving 5 mg/ml MTT in PBS, sterilized with filters at a cut-off of 0.22 mm and stored at 4° C.). Plates are put in an incubator at 37° C. for 4 hrs, then medium is eliminated and each well is added with 200 μl DMSO (Sigma Chemical Co., USA). Plates are read with a spectrophotometer (Spectra count Packard Bell, Meriden, Conn., USA) at 570 nm wave length. IC50 is calculated with the GraphPad Prism4.

[6] = tested on: A2780 Human ovarian carcinoma; assay: IC50 on tumor cell lines, MTT test, A2780; assay type: cell-based; details: A2780, 3 days treatment, two separate experiments
Experimental: as §2

[7] = tested on: A2780/CDDP Human ovarian carcinoma resistant to Cistplatin; assay: IC50 on tumor cell lines, MTT test, A2780/CDDP; assay type: cell-based; details: for IC50: read-out: IC50 values A2780/CDDP
Experimental: Tumor cell lines derived from human and mouse turnours listed below were stabilised for in vitro propagation.
IC50 values are determined as follows: Tumour cells are incubated in the appropriate complete medium at 37° C. and under controlled atmosphere (5% CO2). Test compounds are tested at doses in the range of 100 nM and 100 μM. Cytotoxicity is determined by the MTT test, by measuring cell viability as the cell metabolic capacity to transform the tetrazolium salt of MTT in the blue formazan, by mitochondrial dehydrogenases; the blue colour is read at 570 nm with a spectrophotometer (Alley M C, Scudiero D A, Monks A, Hursey A L, Czerwinski M J, Fine D L, Abbott B J, Mayo J G, Shoemaker R H, Boyd M R. Feasibility of drug screening with panels of human tumor cell lines using a microculture tetrazolium assay. Cancer Res 48: 598-601, 1988. Mosmann T. Rapid colorimetric assay for cellular growth and survival: application to proliferation and cytotoxicity assays. J Immunol Methods 65: 55-63, 1983). Briefly, on day 0, in 96-well plates, 2-4000 cells/well/100 μl complete medium are plated. On day 1, test compounds are added at the test concentrations of 10^−7 M; 3*10^−7 M; 10^−6 M; 3*10^−6 M; 10^−5 M; 3*10^−5M; 10^−4 M. Each concentration is studied in triplicate. Cell viability, as determined by the MTT test is done on Day 4, after 3 days treatment. Each well is added with 10 μl/100 μl MTT (prepared previously by dissolving 5 mg/ml MTT in PBS, sterilized with filters at a cut-off of […] and stored at 4° C.). Plates are put in an incubator at 37° C. for 4 hrs, then medium is eliminated and each well is added with 200 μl DMSO (Sigma Chemical Co., USA). Plates are read with a spectrophotometer (Spectra count Packard Bell, Meriden, Conn., USA) at 570 nm wave length. IC50 is calculated with the GraphPad Prism4.
The reported values are the most representative of two separate experiments.

TLX5 Mouse lymphona = assay: IC50 on tumor cell lines, MTT test, TLX5; assay type: cell-based; details: TLX5, 3 days treatment, two separate experiments
Experimental: as §2

[8] = tested on: H460M Human lung carcinoma/metastatic; assay: IC50 on tumor cell lines, MTT test, H460M; assay type: cell-based; details: 3 days treatment, two separate experiments
Experimental: as §2

[9] = tested on: MIA-PaCa-2 Human pancreatic cancer; assay: IC50 on tumor cell lines, MTT test, MIA PaCa-2; assay type: cell-based; details: MIA PaCa-2, 3 days treatment, two separate experiments
Experimental: as §2

[10] = tested on: Glutathione-S-Transferase; assay: Inhibition of Glutathione-S-Transferase activity in A549 cell lysates (glutathione-CDNB assay); assay type: biochemical, human; details: A549 lung carcinoma cell lysates exposed to 100 μM drug solution for 90 mins
Experimental: Human A549 lung carcinoma cells, known to express high levels of Glutathione-S-Transferase, were routinely grown in flasks with DMEM medium containing 4.5 g/l glucose, 10% foetal calf serum (FCS) and antibiotics at 37° C. and 6% CO2. When the cells are confluent, they are trypsinised and concentrated in a centrifuge at 4° C. The cells were then diluted in phosphate-buffer saline (PBS) containing protease inhibitor cocktail (final concentration of 1 μg/ml) and homogenised by repeatedly freezing in liquid nitrogen and thawing (4 cycles). The homogenised cell samples were centrifuged at 4° C. and the supernatant, which is the cell lysates, was separated. The cell lysates are stored at −56° C.
The Ru compounds are weighed, and dissolved in DMSO to 100 mM. […] The cell lysates were exposed to the drug solutions for 90 mins. Control, containing the cell lysates with water/0.1% DMSO was also prepared.
The GST activity in the treated cell lysates was determined using the glutathione-CDNB (1-chloro-2,4-dinitrobenzene) assay. Glutathione and CDNB were dissolved in deionised water and ethanol respectively to make up a 100 mM solutions. A developing solution, containing 50 mM phosphate buffer solution (pH 6.5), was prepared and was added 1% v/v, the 100 mM glutathione and 100 mM CDNB solutions such that their final concentrations are both 1 mM. The developing solution was added to a 96-well plate at 200 μl per well, followed by the treated cell lysates at 2 μl per well. The absorbance at 340 nm was monitored continuously for 5 mins at 15 s intervals. The average slope of the change in absorbance was determined as a fraction of the control as the percentage of residual GST activity.

[11] = A2780/CDDP (Cisplatin-resistant), 3 days treatment, MTT test, two separate experiments

| Compound | IC50 [1] | IC50 ([2]; HT29 cells) | IC50 [3] | IC50 [4] | IC50 [5] | IC50 [6] | IC50 [7, 11] | IC50 (TLX5 Mouse lymphona) | IC50 [8] | IC50 [9] | Residual GST activity (% control) [10] | further results |
| --- | --- | --- | --- | --- | --- | --- | --- | --- | --- | --- | --- | --- |
| Cc1ccc(C(C)C)cc1.[Cl][Ru]([Cl])[PH]12CN3CN(CN(C3)C1)C2 [(η^6-cymene)Ru(PTA)Cl2, reference compound] | > 1600 µM | 436 µM | 1030 µM | 1060 µM | – | – | – | – | – | – | – | – |
| N.N.[Cl][Pt][Cl] [Cisplatin] | – | – | – | – | 4.9 to 32.6 µM | 10.5 to 11.8 µM | > 100 µM | 0.02 to 0.2 µM | 1.3 to 3 µM | 10.6 to 12.9 µM | – | % increase vs Controls (mean survival time) (TLX5 lymphona cells): 18%; Mean survival time (days ± SD) (TLX5 lymphona cells): 11.8 ± 1.79 days; Activity in vivo (in words) (TLX5 lymphona cells): effective |
| C1N2CN3CN1CP(C2)C3.C=C(CC)C(=O)c1ccc(OCC(=O)OCCc2ccccc2)c(Cl)c1Cl.[Cl][Ru][Cl] [Compound 4, (Ethacrynic-η^6:phenylethanoate)Ru(PTA)Cl2] | 105 µM | 106 µM | 66.7 µM | 6.28 µM | 30 to 32.6 µM | ~30 µM | 36.7 to 38.7 µM | 3.6 to 4.3 µM | 29.1 to 31.5 µM | 81.5 to 92.7 µM | 42.77 ± 13.9 % control | Activity against the Cisplatin-resistant cell line A2780/CDDP (in words) ([7]; A2780/CDDP, MTT test): active |
| C=C(CC)C(=O)c1ccc(OCC(=O)O)c(Cl)c1Cl [Ethacrynic acid, reference compound] | – | – | – | – | – | – | – | – | – | – | – | IC50 ([1]; Homo sapiens): 66 µM; IC50 ([5]; Homo sapiens, 72 h): 35.2 to 44 µM; IC50 ([6]; Homo sapiens, 72 h): 91.1 to 94.8 µM; IC50 ([7]; Homo sapiens, A2780/CDDP, 72 h): 84.3 to 97.6 µM; IC50 (TLX5 Mouse lymphona; Mus musculus, TLX-5, 72 h): 1.3 to 1.8 µM; IC50 ([2]; Homo sapiens, HT-29, HT29 cells): 73.5 µM; IC50 ([3]; Homo sapiens): 50.7 µM; IC50 ([8]; Homo sapiens, 72 h): 58.1 to 63.3 µM; IC50 ([9]; Homo sapiens, 72 h): > 100 µM; IC50 ([4]; Homo sapiens): 7.73 µM |
| (Ethacrynic-η^6:benzylamide)Ru(PTA)Cl2 [Compound 3] | 19.9 µM | 50.7 µM | 32.3 µM | 2.91 µM | 2.3 to 3.8 µM | 7.1 to 9.5 µM | 4.6 to 5.3 µM | 0.8 to 3 µM | 2.5 to 3.8 µM | 14.7 to 20.1 µM | 63.57 ± 2.0 % control | % increase vs Controls (mean survival time) (TLX5 lymphona cells): 22%; Mean survival time (days ± SD) (TLX5 lymphona cells): 12.2 days and 12.2 ± 1.79 days; Activity in vivo (in words) (TLX5 lymphona cells): active in vivo; Activity against the Cisplatin-resistant cell line A2780/CDDP (in words) ([7]; A2780/CDDP, MTT test): active |
| (η^6 cymene)Ru(PTA)(C2O4) [Compound 8] | > 1600 µM | 267 µM | 1130 µM | 1170 µM | – | – | – | – | – | – | – | – |
| (η^6-cymene)Ru(PTA)(C6H6O4) [Compound 9] | > 1600 µM | 265 µM | 1570 µM | 1090 µM | – | – | – | – | – | – | – | – |
| (η^6-cymene)RuCl2(ethacrynic-propylamide-imidazole) [Compound 6] | 10.7 µM | 39.1 µM | 34 µM | 4.8 µM | – | – | – | – | – | – | 23.70 ± 10.7 % control | – |
| RAPTA-T | – | – | – | – | > 100 µM | > 100 µM | > 100 µM | 64.1 to 92.9 µM | > 100 µM | > 100 µM | – | – |
| [(η^6-cymene)RuCl(PTA)(imidazolium-ethacrynic aide)]BF4^− [Compound 7] | 19.9 µM | 64.2 µM | 65.1 µM | 5.97 µM | – | – | – | – | – | – | 62.58 ± 8.8 % control | – |

Source: US9018199B2, “Transition metal complexes for inhibiting resistance in the treatment of cancer and metastasis” (Ecole Polytechnique Federale de Lausanne (EPFL), priority 2006, dated 2015)
